Legend:
[1] = test system: P. berghei asexual stages; assay: ex vivo drug assay (luciferase), asexual stages; type: cell-based; details: Plasmodium berghei, 24 h, read-out: IC50 against P. berghei ex vivo
Description: Plates frozen at −80 °C were thawed at 37 °C. The cells were lysed at room temperature in 10 μl 1x luciferin lysis buffer (Luciferase Cell Culture Lysis 5 × reagent, Promega), and 100 μl luciferase assay substrate was added to each well (Luciferase Assay System, Promega). Luciferase activity was measured on a luminescence plate reader (Mithras LB940 luminometer, Berthold Technologies). The mean of the luciferase activity was calculated for each technical triplicate and normalized as follows: (Lucx−LucRBC)/(Lucsolvent−LucRBC) with Lucx and Lucsolvent=mean luciferase activity for parasites incubated with compound x and with solvent (DMSO for 1o and PBS for MB), respectively, and LucRBC=mean luciferase activity of non-infected red blood cells (background). IC50 values were calculated using Prism (GraphPad, log(inhibitor) versus normalized response—variable slope) in three independent experiments for the P. falciparum gametocyte assay and five for the P. berghei ex vivo drug assay.
The animal experiments described in this part were performed at the Institut de Biologie Moléculaire et Cellulaire (Strasbourg, France), using facilities and protocols adhering to national regulations of laboratory animal welfare in France. […] Parasitaemia was monitored via FACS analysis (FACSCalibur, BD Bioscience). […]

[2] = PAMPA membrane permeability; type: in vitro ADME
Description: Pharmacokinetic data were obtained for compound 1o at the Sanford-Burnham Medical Research Institute according to established procedures. Compound solubility in an aqueous solution was measured using an automated kinetic solubility method. The concentration of the compound in a saturated pH-buffered aqueous solution was determined via UV absorbance (250–498 nm) and compared with the spectra of a precipitation-free reference solution. The plasma stability of the compound was determined at a single concentration using species-specific plasma. The percentage of parent compound remaining after 3 h was determined via LC-MS/MS. The percentage of compound 1o bound to plasma proteins was determined through rapid equilibrium dialysis and quantified via LC-MS/MS. Metabolic stability of the compound was determined at a single concentration using species-specific liver microsomes that contained cytochrome P450s, flavin-monooxygenases, carboxyl-esterases, epoxide hydrolases, and other drug-metabolizing enzymes. The quantification was carried out via LC-MS/MS. Membrane permeability of compound 1o was measured using an in vitro model for the passive transport from the gastrointestinal tract into the blood system. A double-sink parallel artificial membrane permeability assay PAMPA, in a 96-well format was employed.

For COc1ccc2c(c1)CCC1C2CC[C@@]2(C)C1CC[C@H]2NCc1cc2ccccc2cc1O (some centres unmarked) [1o], the IC50 [1] was 3.1 ± 2.4 nM, the “PAMPA Pe” value ([2]; Donor pH 5.0, Acceptor pH 7.4) was 0 ×10⁻⁶ cm/s and the “PAMPA Pe” value ([2]; Donor pH 6.2, Acceptor pH 7.4) was 0 ×10⁻⁶ cm/s. The “PAMPA Pe” value ([2]; Donor pH 7.4, Acceptor pH 7.4) was 0 ×10⁻⁶ cm/s and the “PAMPA permeability in words” value ([2]; all 3 pH levels, compound well embedded in the filter membrane) was “very poorly permeable at all 3 pH levels tested”.

— article PMC5321741, “Arylmethylamino steroids as antiparasitic agents” (Nature Communications, 2017)
